# Test results published in patent publication US10940139B2, “Compounds that interact with the Ras superfamily for the treatment of cancers, inflammatory diseases, rasopathies, and fibrotic disease” (Shy Therapeutics LLC, priority 2017, dated 2021).
# Target: KRas G12D/Q61H double mutant (Homo sapiens (Human), UniProt P01116, G12D/Q61H)
# Test: Ras GTP binding domain inhibition assay (labeled GTP)
# Details: 20 μM compound; KRas G12D/Q61H double mutant; read-out: % Inhibition at 20 μM of K-Ras mutant and wild-type protein, KRas G12D Q61H
# Description: Buffer-I: • 50 mM Tris, pH 7.5 • 150 mM NaCl (optional) • 1 mM MgCl2 • 1 mM DTT. • KRas G12D mutant protein was expressed as a His-tagged protein. Purified His-KRas G12D protein was diluted in buffer-I to a final concentration of 3-10 μg/ml. • 200 μl of the diluted His-KRas G12D protein was added to a nickel coated 96 well plate and incubated overnight at 4° C. • The next day, wells were washed 3× in 200 μl of Buffer-I. • Then 200 μl of Buffer-I were added to each well in the presence of 1% DMSO. • Tested compounds were added to the protein-coated wells at a concentration of 20 μM, and incubated for 3 hours at room temperature. While performing IC50 measurements a serial dilution of all tested concentrations was prepared.
# Then 22 μl of Cy3-GTP or Cy5-GTP was added to each well. The labeled GTP was incubated for 45 min. at room temperature. • Following GTP incubation, wells were washed 3× in Buffer-I, and 200 μl of Buffer-I were added to each well. • Following washes, the amount of bound labeled-GTP was measured with an Eppendorf AF2200 plate reader.
# By substituting KRas G12D mutant protein with KRas G12C mutant, KRas wild type, KRas Q61H mutant, KRas G12D/Q61H double mutant or KRas G12C/Q61H double mutant under the assay conditions described above, KRas G12C mutant KRas wild type, KRas Q61H mutant, KRas G12D/Q61H double mutant and KRas G12C/Q61H double mutant inhibition, respectively, were each determined.
# KRas G12D/Q61H double mutant, sequence (P01116-2 other isoform, or with tags, fused parts or gaps G12D/Q61H): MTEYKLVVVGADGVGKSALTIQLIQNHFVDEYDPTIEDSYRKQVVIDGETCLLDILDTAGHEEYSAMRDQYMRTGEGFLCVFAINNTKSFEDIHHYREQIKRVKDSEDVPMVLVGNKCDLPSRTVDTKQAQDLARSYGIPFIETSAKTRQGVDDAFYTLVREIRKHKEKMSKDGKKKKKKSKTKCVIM
row,inhibition at 20 µM [%],Compound
1,25 to 50,CCOC(=O)c1c(NC(C)=O)sc(Cc2ccc3c(c2)OCO3)c1C
2,25 to 50,CC(C)(CNc1ccc(S(=O)(=O)N(Cc2ccccc2)Cc2ccccc2)cn1)N1CCOCC1
3,25 to 50,CCCc1cc(=O)oc2cc(OCc3cc(C(=O)OC)c(C)o3)ccc12
4,1 to 25,Cc1ccccc1N(CC(=O)NCC1CCCCCC1)S(C)(=O)=O
5,25 to 50,COc1ccc(COCC(CNC(=O)c2cc(C)cc(C)c2)OC(=O)c2cc(C)cc(C)c2)cc1 (centres unmarked)
6,25 to 50,COc1ccc(CCNC(=O)COC(=O)c2c(NC(=O)C(C)(C)C)sc(C)c2C)cc1
7,25 to 50,CC(=O)c1ccccc1OCCN(c1nccs1)S(=O)(=O)c1ccccc1
8,25 to 50,Cc1cc(C)c(S(=O)(=O)Nc2ccc(Oc3ccccc3C#N)nc2)c(C)c1
9,25 to 50,CCOc1ccccc1N1CC(c2nc3ccccc3n2CCC2CCCCC2)CC1=O (centres unmarked)
10,51 to 75,CCOc1ccc(Oc2ccc(C(F)(F)F)cc2NCc2nc(C)no2)cc1
11,25 to 50,CC(C)(C)c1noc(COc2ccc(C(=O)c3ccc(F)cc3)cc2)n1
12,25 to 50,Cc1ccc(S(=O)(=O)N2CCN(C(=O)CNC(=O)c3ncccc3O)CC2)s1
13,1 to 25,COCCCCC(=O)N(c1cc(C)ccc1F)C(C)c1ccc(C)cc1 (centres unmarked)
14,1 to 25,OCCN(Cc1ccc(Cl)c(Cl)c1)c1ncc(Br)cn1
15,1 to 25,COc1cc(CN(C)C(=O)Cc2ccc(Br)cc2)ccc1OCc1ccccc1
16,25 to 50,COC(=O)c1ccc(CN2CCN(c3cccc(C(F)(F)F)c3)CC2)cc1
17,25 to 50,COC(=O)c1sccc1S(=O)(=O)NCCCCCc1nc(-c2ccc(C)cc2)no1
18,25 to 50,CN(Cc1ccccc1C#N)Cc1ccccc1N1CCCCC1
19,51 to 75,OCCCCCSc1n[nH]c(-c2ccccn2)n1
20,25 to 50,COC(C)c1nc(CN(Cc2ccc(C#N)cc2)Cc2cccc(F)c2)cs1 (centres unmarked)
21,1 to 25,Cc1ccc(Sc2ccc(S(=O)(=O)NC3CCCC3)cc2)cc1C
22,25 to 50,COc1ccc(-c2oc3ncn(CCCn4ccnc4)c(=N)c3c2-c2ccc(OC)cc2)cc1

row,Compound,inhibition at 20 µM [%]
1,CCOC(=O)c1c(NC(=O)c2c(N)n(CCCOC)c3nc4ccccc4nc23)sc2c1CCCC2,1 to 25

# Same assay, conditions: 20 μM compound; read-out: % Inhibition at 20 μM KRas G12D Q61H
row,inhibition at 20 µM [%],Compound
1,1 to 25,Clc1csc2nc(-c3ccccn3)nc(N3CCOCC3)c12 [drawing 2707]
2,25 to 50,Cc1cc(C)n(-c2ccc(C(=O)Nc3nnc(-c4ccccn4)[nH]3)cn2)n1
3,25 to 50,CN(C)S(=O)(=O)c1ccc(N2CCCC2)c(C(=O)NCCCN2CCCC2=O)c1
4,1 to 25,COc1cc(C)ccc1OS(=O)(=O)N1CCc2ccccc2C1
5,1 to 25,CC1(C)NC(=O)N(CC(=O)Nc2nc(-c3ccccn3)cs2)C1=O
6,25 to 50,Cc1sc(NC2CCCCC2)nc1-c1ccc(F)c(F)c1
7,25 to 50,O=C(Nc1nnc(-c2ccccn2)[nH]1)C1CC(=O)N(C2CCCC2)C1 (centres unmarked)
8,1 to 25,Nc1nc(-c2ccccn2)nc2scc(-c3ccccc3)c12 [drawing 2822]
9,1 to 25,Cc1nc(CC(C)C)sc1C(=O)Nc1nnc(-c2ccccn2)[nH]1
10,25 to 50,CCCOc1ccc(OCCOC(=O)c2cccnc2SCCOc2ccc(OCCC)cc2)cc1
11,1 to 25,COC(=O)c1ccc(C(=O)N2Cc3ccccc3C(c3ccccc3)C2)nc1 (centres unmarked)
12,25 to 50,CC(c1nc(C(C)(C)C)no1)N(C)CC12CC3CC(CC(C3)C1)C2 (centres unmarked)
13,25 to 50,CN1CCC(C(=O)Nc2nnc(-c3ccccn3)[nH]2)CC1=O (centres unmarked)
14,1 to 25,Nc1nc(O)c2scc(-c3ccccc3Cl)c2n1 [drawing 2693]
15,51 to 75,O=C(c1csc2c(O)nc(-c3ccccn3)nc12)N1CCN(c2ccccc2Cl)CC1 [drawing 2718]
16,1 to 25,O=c1[nH]c(-c2cnc(Oc3ccccc3)cn2)nc2ccsc12
17,25 to 50,COc1ccc(COCC(=O)Nc2ccnc(-c3ccccn3)n2)cn1 [drawing 2699]
18,25 to 50,CN(Cc1ccccn1)Cc1nc2ccccc2n1C
19,25 to 50,O=C(Nc1nnc(-c2ccccn2)[nH]1)c1ccc(Cn2cncn2)cc1
20,25 to 50,COC(=O)CCN(Cc1ccc(F)c(F)c1)c1nc(C(F)(F)F)ccc1C#N
21,51 to 75,CCOC(=O)NC1CCN(C(=O)c2csc3c(O)nc(-c4ccccn4)nc23)CC1 [drawing 2685]
22,25 to 50,Cc1ccc(OCCSc2nnc(C(C)Oc3ccc(F)cc3)o2)cc1 (centres unmarked)
23,1 to 25,COCCN(CCOC)c1nc(-c2ccccn2)nc2scc(C(=O)NCCc3cnc(O)nc3)c12 [drawing 2812]

row,inhibition at 20 µM [%],Compound
1,25 to 50,COc1cccc(OCCn2c(CN3CCCCC3)nc3ccccc32)c1 [drawing 3032]
2,25 to 50,Oc1nc(-c2ccccn2)nc2c1ncn2-c1ccccn1 [drawing 2698]
3,25 to 50,FC(F)(F)c1ccnc(N2CCN(CCc3ccncc3)CC2)n1
4,25 to 50,Cc1ccccc1CC(=O)Nc1nnc(-c2ccccn2)[nH]1
5,1 to 25,c1cc2c(cc1-c1csc(C3CC3)n1)CCC2
6,1 to 25,COc1cc(N2CCN(C(=O)c3csc4c(O)nc(-c5ccccn5)nc34)CC2)ccc1O [drawing 2820]
7,25 to 50,O=c1[nH]c(-c2ncccn2)nc2cc(-c3cccc(Cl)c3)sc12
8,25 to 50,Cc1cccc(-c2nnc(NC(=O)C3Cc4cc(F)ccc4O3)[nH]2)n1 (centres unmarked)
9,51 to 75,O=C(CCc1nc2ccccc2[nH]1)Nc1nnc(-c2ccccn2)[nH]1
10,25 to 50,Cc1cc(N2CCN(c3cccc(C(F)(F)F)c3)CC2)n2ncnc2n1
11,25 to 50,O=S(=O)(c1ccccc1)N(CCOc1cccc(Cl)c1)c1nccs1
12,1 to 25,CN(Cc1nnc(-c2ccccc2Cl)o1)Cc1ccccc1N1CCCC1
13,1 to 25,FC(F)(F)c1cccc(N2CCN(c3ncnc4sccc34)CC2)c1
14,25 to 50,COc1ccc(CN2CCN(C(=O)c3csc4c(O)nc(-c5ccccn5)nc34)CC2)cc1OC
15,1 to 25,CCc1cc(NC(C)C(=O)N2CCOCC2)nc(-c2ccccn2)n1 (centres unmarked)
16,25 to 50,Nc1nc(O)c2scc(C(=O)N3CCN(c4ccccc4)CC3)c2n1
17,1 to 25,FC(F)(F)c1csc2nc(-c3ccccn3)nc(N3CCOCC3)c12 [drawing 2741]
18,1 to 25,Cc1ccc(C(C)C)cc1OS(=O)(=O)N1CCc2ccccc2C1
19,25 to 50,O=C(c1csc2c(O)nc(-c3ccccn3)nc12)N1CCNC(c2ccccc2)C1 (centres unmarked)
20,25 to 50,Cc1c(-c2ccccc2)sc2[nH]c(-c3ccccn3)nc(=O)c12
21,25 to 50,CN(Cc1ccc(C(F)(F)F)cc1)Cc1cc2c(cc1O)CCC2
22,1 to 25,Cc1cccc(OC2CCN(c3nc(-c4ccccn4)nc4c3CCC4)CC2)n1
23,1 to 25,N#Cc1ccccc1S(=O)(=O)NC(c1ccccc1)c1ccccn1 (centres unmarked)

# Same assay, conditions: 20 μM; read-out: KRas G12D Q61H % Inh.
row,inhibition at 20 µM [%],Compound
1,1 to 25,O=C(c1ccc2c(c1)CCO2)N1CCCc2c(O)nc(-c3ccccn3)nc21
2,25 to 50,CNC(=O)c1sc2[nH]c(-c3ccccn3)nc(=O)c2c1C [drawing 2584]
3,51 to 75,COc1ccccc1-c1cc(C(=O)Nc2nnc(-c3ccccn3)[nH]2)no1 [drawing 2539]
4,51 to 75,CC(C)COC(C)C(=O)Nc1nnc(-c2ccccn2)[nH]1 (centres unmarked) [drawing 2505]
5,51 to 75,O=C(Nc1nnc(-c2ccccn2)[nH]1)c1ccc(=O)[nH]n1 [drawing 2562]
6,51 to 75,O=c1nc(-c2ccccn2)[nH]c2sc(-c3ccccc3)cc12 [drawing 2588]
7,51 to 75,Cn1cc(C2CC2C(=O)Nc2nnc(-c3ccccn3)[nH]2)cn1 (centres unmarked) [drawing 2457]
8,51 to 75,O=C(Cc1cccc(F)c1)Nc1nnc(-c2ccccn2)[nH]1 [drawing 2497]
9,51 to 75,COc1ccc(CC(=O)Nc2nnc(-c3ccccn3)[nH]2)cc1 [drawing 2485]
10,51 to 75,Cc1c(C(=O)Nc2nnc(-c3ccccn3)[nH]2)oc2c1C(=O)CCC2 [drawing 2477]
11,51 to 75,N#Cc1cccc(OCC(=O)Nc2nnc(-c3ccccn3)[nH]2)c1 [drawing 2523]
12,51 to 75,CC(C)(C)c1noc(CCC(=O)Nc2nnc(-c3ccccn3)[nH]2)n1 [drawing 2493]
13,51 to 75,COc1cccc(COCC(=O)Nc2nnc(-c3ccccn3)[nH]2)c1 [drawing 2534]
14,51 to 75,O=C(Cn1c(=O)oc2ccccc21)Nc1nnc(-c2ccccn2)[nH]1 [drawing 2502]
15,76 to 100,CN(CC(=O)Nc1nnc(-c2ccccn2)[nH]1)S(=O)(=O)c1ccccc1 [drawing 2558]
16,51 to 75,COC(=O)c1cncc(C(=O)Nc2nnc(-c3ccccn3)[nH]2)c1 [drawing 2529]

row,Compound,inhibition at 20 µM [%]
1,O=C(CCNC(=O)c1ccco1)Nc1nnc(-c2ccccn2)[nH]1 [drawing 2503],51 to 75
